From PMC5775429, “LY2087101 and dFBr share transmembrane binding sites in the (α4)3(β2)2 Nicotinic Acetylcholine Receptor” (Scientific Reports, 2018)
Values joined by “and” are separate entries in the source; they are usually repeats but may differ in a detail not shown here. Equal values may be shown once. Read-outs that look alike come from different tables or passages of the source. Marks after values point to notes of the source that are not given here.

Assays:
(α4H94N)3(β2)2 nAChR = (α4H94N)3(β2)2 nAChR (Homo sapiens, UniProt P43681, H94N); parameters: method as in PMID 28446611; details: 10 µM ACh + 1 µM dFBr vs 10 µM ACh alone; data reported previously ref 29; cited from earlier work
(α4Q150T)3(β2)2 nAChR = (α4Q150T)3(β2)2 nAChR (Homo sapiens, UniProt P43681, Q150T); parameters: method as in PMID 28446611; details: 10 µM ACh + 1 µM dFBr vs 10 µM ACh alone; data reported previously ref 29; cited from earlier work
α3β2 nAChR = biological target: T1, α3β2 nAChR (Homo sapiens, UniProt P17787+P32297); assay: Two-electrode voltage-clamp of ACh-induced currents in Xenopus oocytes; assay type: cell-based; details: 1 μM PAM
T1 construct: expressed in transfected cells; host or cells: Xenopus laevis oocytes injected with cRNA

[1] = tested on: non-induced compulsive-like mouse model; parameters: method as in PMID 23712602, PMID 28446611, PMID 28809075, PMID 28105008; details: cited from earlier work
(α4)2(β2)3 nAChR [2] = biological target: T2, (α4)2(β2)3 nAChR (Homo sapiens, UniProt P17787+P43681); details: cited from earlier work
T2 construct: expressed in transfected cells; host or cells: Xenopus laevis oocytes injected with cRNA

(α4L63I)3(β2)2 nAChR = (α4L63I)3(β2)2 nAChR (Homo sapiens, UniProt P43681, L63I); parameters: method as in PMID 28446611; details: 10 µM ACh + 1 µM dFBr vs 10 µM ACh alone; data reported previously ref 29; cited from earlier work
(α4R65H)3(β2)2 nAChR = (α4R65H)3(β2)2 nAChR (Homo sapiens, UniProt P43681, R65H); parameters: method as in PMID 28446611; details: 10 µM ACh + 1 µM dFBr vs 10 µM ACh alone; data reported previously ref 29; cited from earlier work
animal model [3] = tested on: animal model; parameters: method as in PMID 23712602, PMID 28446611, PMID 28809075, PMID 28105008; details: cited from earlier work
α3β4 nAChR = biological target: T3, α3β4 nAChR (Homo sapiens, UniProt P30926+P32297); assay: Two-electrode voltage-clamp of ACh-induced currents in Xenopus oocytes; assay type: cell-based; details: 1 μM PAM
T3 construct: expressed in transfected cells; host or cells: Xenopus laevis oocytes injected with cRNA
Description: Next, Xenopus oocytes were injected with RNA mixes of […], α3:β4, […], or α4:β4 at ratios of 8:1, 1:1, or 1:8 to express nAChRs with different subunit composition and with various α:β ratios.
(§1) Ovarian lobules were surgically harvested from oocytes-positive female Xenopus laevis (NASCO, Fort Atkinson, WI) according to an animal use protocol approved by the Texas A&M Health Sciences Center Institutional Animals Care and Use Committee. The Texas A&M Health Sciences Center Research Facility is registered as an animal research facility with the United States Department of Agriculture and is fully accredited by the American Association for Accreditation of Laboratory Animal Care (AAALAC). For oocytes defolliculation, ovarian lobes were treated with 3 mg/ml collagenase type 2 (Worthington Biomedical, Lakewood, NJ) in Ca + 2-free buffer (85 mM NaCl, 2.5 mM KCl, 1 mM MgCl2, 5 mM HEPES, pH 7.6). Collagenase treatment was allowed to proceed for 3 hours at room temperature with gentle shaking then oocytes were washed several times with buffer to remove collagenase then with ND96-gentamicine buffer. Healthy Stage V and VI oocytes were visually selected and maintained at 18 °C in modified ND96-gentamicine buffer (96 mM NaCl, 2 mM KCl, 1.8 mM CaCl2, 1 mM MgCl2, 5 mM HEPES, 50 µg/ml gentamicin, pH 7.6). Oocytes were injected with 50–100 ng of the desired nAChR subunits cRNA mix at ratios of 8α:1β or 1α:8β to express nAChRs with subunit stoichiometries of 3α:2β (low agonist sensitivity) or 2α:3β (high agonist sensitivity), respectively.
(§2) Oocytes were continuously perfused with recording buffer (100 mM NaCl, 2 mM KCl, 1 mM CaCl2, 0.8 mM MgCl2, 1 mM EGTA, 10 mM Hepes, pH 7.5) except during periods of drug applications.

animal model [4] = tested on: animal model; parameters: method as in PMID 23712602, PMID 28446611, PMID 28809075, PMID 28105008; details: cited from earlier work; remark: listed apart in the source
(α4G67E)3(β2)2 nAChR = (α4G67E)3(β2)2 nAChR (Homo sapiens, UniProt P43681, G67E); parameters: method as in PMID 28446611; details: 10 µM ACh + 1 µM dFBr vs 10 µM ACh alone; data reported previously ref 29; cited from earlier work
(α4)2(β2)3 nAChR [5] = biological target: T2, (α4)2(β2)3 nAChR; assay: Two-electrode voltage-clamp of ACh-induced currents in Xenopus oocytes; assay type: cell-based
Description: To begin to characterize LY2087101 interaction with the heteropentameric α4β2 nAChRs, we examined the selectivity of LY2087101 for the two α4β2 nAChR isoforms; high-agonist sensitivity (α4)2(β2)3 and low-agonist sensitivity (α4)3(β2)2 nAChRs. Xenopus oocytes were injected with α4 and β2 subunits RNAs at ratios 8:1 and 1:8 to favor expression of (α4)3(β2)2 and (α4)2(β2)3 nAChRs, respectively.
as §1, §2

T2 sequence (P43681 29-627 limits assumed): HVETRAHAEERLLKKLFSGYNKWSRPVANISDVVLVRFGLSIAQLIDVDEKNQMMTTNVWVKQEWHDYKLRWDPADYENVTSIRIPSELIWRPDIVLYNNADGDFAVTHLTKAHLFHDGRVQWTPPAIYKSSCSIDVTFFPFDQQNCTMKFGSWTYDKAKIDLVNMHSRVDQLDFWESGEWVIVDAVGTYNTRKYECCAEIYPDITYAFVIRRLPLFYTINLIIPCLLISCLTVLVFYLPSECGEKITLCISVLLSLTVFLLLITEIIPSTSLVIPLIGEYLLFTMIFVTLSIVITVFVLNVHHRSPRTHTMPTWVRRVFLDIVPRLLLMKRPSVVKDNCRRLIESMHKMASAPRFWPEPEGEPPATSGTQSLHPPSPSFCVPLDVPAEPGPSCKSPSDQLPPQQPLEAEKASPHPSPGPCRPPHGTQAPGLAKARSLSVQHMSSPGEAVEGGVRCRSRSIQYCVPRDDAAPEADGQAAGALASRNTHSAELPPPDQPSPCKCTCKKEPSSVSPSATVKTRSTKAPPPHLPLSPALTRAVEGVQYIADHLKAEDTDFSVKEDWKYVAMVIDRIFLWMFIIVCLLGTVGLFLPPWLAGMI
T2 sequence (P17787 26-502): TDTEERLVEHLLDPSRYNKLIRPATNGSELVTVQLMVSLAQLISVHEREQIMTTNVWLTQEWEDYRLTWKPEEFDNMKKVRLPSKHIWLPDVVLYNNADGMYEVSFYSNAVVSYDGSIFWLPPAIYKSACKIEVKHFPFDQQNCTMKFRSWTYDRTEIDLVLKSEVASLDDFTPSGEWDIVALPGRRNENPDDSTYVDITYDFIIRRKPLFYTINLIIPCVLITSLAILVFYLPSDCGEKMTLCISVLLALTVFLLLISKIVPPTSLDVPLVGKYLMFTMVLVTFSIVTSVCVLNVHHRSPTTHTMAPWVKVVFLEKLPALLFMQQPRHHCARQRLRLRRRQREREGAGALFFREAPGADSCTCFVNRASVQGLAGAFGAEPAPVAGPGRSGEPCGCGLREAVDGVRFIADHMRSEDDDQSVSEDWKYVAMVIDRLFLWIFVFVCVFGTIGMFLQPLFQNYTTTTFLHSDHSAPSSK
Chain of (α4L63I)3(β2)2 nAChR (P43681 29-627 L63I limits assumed): as the sequence (P43681 29-627 limits assumed) above, with L35I counted along it
Chain of (α4L63I)3(β2)2 nAChR (P17787 26-502 partner): as the sequence (P17787 26-502) above
Chain of (α4R65H)3(β2)2 nAChR (P43681 29-627 R65H limits assumed): as the sequence (P43681 29-627 limits assumed) above, with R37H counted along it
Chain of (α4R65H)3(β2)2 nAChR (P17787 26-502 partner): as the sequence (P17787 26-502) above
Chain of (α4G67E)3(β2)2 nAChR (P43681 29-627 G67E limits assumed): as the sequence (P43681 29-627 limits assumed) above, with G39E counted along it
Chain of (α4G67E)3(β2)2 nAChR (P17787 26-502 partner): as the sequence (P17787 26-502) above
Chain of (α4H94N)3(β2)2 nAChR (P43681 29-627 H94N limits assumed): as the sequence (P43681 29-627 limits assumed) above, with H66N counted along it
Chain of (α4H94N)3(β2)2 nAChR (P17787 26-502 partner): as the sequence (P17787 26-502) above
Chain of (α4Q150T)3(β2)2 nAChR (P43681 29-627 Q150T limits assumed): as the sequence (P43681 29-627 limits assumed) above, with Q122T counted along it
Chain of (α4Q150T)3(β2)2 nAChR (P17787 26-502 partner): as the sequence (P17787 26-502) above
T1 sequence (P32297 32-505): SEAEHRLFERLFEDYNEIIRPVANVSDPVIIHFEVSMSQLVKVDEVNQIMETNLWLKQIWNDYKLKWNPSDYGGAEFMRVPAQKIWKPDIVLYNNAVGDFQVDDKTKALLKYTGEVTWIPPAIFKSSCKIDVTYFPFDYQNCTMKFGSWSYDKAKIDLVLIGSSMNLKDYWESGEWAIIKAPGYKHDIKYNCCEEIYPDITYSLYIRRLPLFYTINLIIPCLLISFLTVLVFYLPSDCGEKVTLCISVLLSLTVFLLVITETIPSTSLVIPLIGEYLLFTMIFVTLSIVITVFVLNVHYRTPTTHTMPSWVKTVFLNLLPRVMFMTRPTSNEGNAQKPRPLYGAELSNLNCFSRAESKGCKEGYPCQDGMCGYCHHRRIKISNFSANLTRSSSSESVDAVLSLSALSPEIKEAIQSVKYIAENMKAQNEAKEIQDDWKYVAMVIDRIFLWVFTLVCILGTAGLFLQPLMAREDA
T1 sequence (P17787 26-502): as the sequence (P17787 26-502) above
T3 sequence (P32297 32-505): as the sequence (P32297 32-505) above
T3 sequence (P30926 22-498): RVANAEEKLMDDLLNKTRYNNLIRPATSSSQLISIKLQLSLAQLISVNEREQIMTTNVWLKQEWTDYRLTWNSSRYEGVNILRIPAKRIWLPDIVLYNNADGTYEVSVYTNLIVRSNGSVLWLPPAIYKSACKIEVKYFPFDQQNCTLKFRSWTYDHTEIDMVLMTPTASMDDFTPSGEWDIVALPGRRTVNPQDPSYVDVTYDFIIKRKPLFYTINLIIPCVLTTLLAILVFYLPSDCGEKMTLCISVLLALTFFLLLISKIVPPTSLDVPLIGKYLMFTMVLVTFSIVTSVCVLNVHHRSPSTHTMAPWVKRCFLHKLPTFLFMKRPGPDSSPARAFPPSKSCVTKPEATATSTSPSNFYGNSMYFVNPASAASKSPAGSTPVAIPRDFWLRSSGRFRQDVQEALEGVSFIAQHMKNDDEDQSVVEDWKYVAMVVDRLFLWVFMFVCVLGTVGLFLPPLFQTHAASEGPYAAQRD

SMILES	R, potentiation ratio (PR) ((α4H94N)3(β2)2 nAChR)	R, potentiation ratio (PR) ((α4Q150T)3(β2)2 nAChR)	potentiation of ACh responses (α3β2 nAChR)	compulsive-like behavior [1]	increase in ACh efficacy (Imax) by dFBr ((α4)2(β2)3 nAChR [2]; ACh concentration-response curve)	dFBr maximal potentiation ((α4)2(β2)3 nAChR [2])	EC50 ((α4)2(β2)3 nAChR [2]; read-out: dFBr potentiation EC50)	R, potentiation ratio (PR) ((α4L63I)3(β2)2 nAChR)	R, potentiation ratio (PR) ((α4R65H)3(β2)2 nAChR)	nicotine withdrawal signs (animal model [3])	potentiation of ACh responses (α3β4 nAChR)	antiallodynic response of nicotine (animal model [4])	R, potentiation ratio (PR) ((α4G67E)3(β2)2 nAChR)	ACh Imax in the presence of 1 µM LY2087101 ((α4)2(β2)3 nAChR [5]; ACh concentration-response curve, normalized to 1 mM ACh alone)	EC50 ((α4)2(β2)3 nAChR [5]; co-applied with 10 µM ACh, HS WT, read-out: LY2087101 potentiation EC50)
C=CC(C)(C)c1[nH]c2cc(Br)ccc2c1CCNC [dFBr]	5.8 ± 0.5^a	3.9 ± 0.1^a	did not potentiate	attenuate compulsive-like behavior	~ 4 fold	300%	~1000 nM	3.5 ± 0.3^a	5.3 ± 1.8^a	reverse nicotine withdrawal signs	did not potentiate	potentiate the antiallodynic response of nicotine	4.1 ± 0.2^a	–	–
Cc1nc(Nc2ccc(F)cc2)sc1C(=O)c1ccsc1 [LY2087101, [2-[(4-Fluorophenyl)amino]-4-methyl-5-thiazolyl]-3-thienylmethanone]	–	–	–	–	–	–	–	–	–	–	–	–	–	189 ± 2% and ~190%	1900 ± 40 nM
